Assay results from patent US10597398B2, “Suppression and regeneration promoting effect of low molecular weight compound on cancer and fibrosis” (NATIONAL UNIVERSITY CORPORATION TOTTORI UNIVERSITY, priority 2015, dated 2020).

Legend:
[1] = test system: cancer stem cells (CD44) in HuH-7 cells; experiment: Inhibitory effect on cancer stem cells (FCM analysis of CD44), Example 2.4; type: cell-based, human; conditions: comparison with IC-2
Method: CD44, a cancer stem cell marker, was used as an indicator to examine an inhibitory effect of each compound on cancer stem cells. The concentrations of the respective compounds were as described in FIG. 32. Each control sample used was 0.1% DMSO, a solvent for each compound. In the figures, the “‡” indicates a significant difference of p<0.01.
First, 70 to 90% confluent HuH-7 cells were harvested and seeded at 1.5×10^6 cells per 10-cm cell culture dish. After 24 h, each compound was added to the cells and the mixture was cultured at 37° C. At 48 h after the compound treatment, the cells were harvested from each culture dish. The cells were centrifuged at 1000 rpm and at 4° C. for 3 min to remove a supernatant and were then washed twice with 1 mL of 0.5% FBS/2 mM EDTA/PBS. Next, the cells were suspended in 500 μL of 5% BSA/0.5% FBS/2 mM EDTA/PBS for blocking at 4° C. for 15 min. Then, 5 μL of a mouse anti-human CD44 monoclonal antibody (156-3C11, Cell Signaling Technology Inc., Danvers, Mass.) was added to 500 μL of the cell suspension. The mixture was resuspended and subjected to a primary antibody reaction in a dark room at 4° C. for 30 min. After that, the cells were washed 3 times with 1 mL of 0.5% FBS/2 mM EDTA/PBS. Subsequently, 100 μL of Alexa Fluor 488-labeled IgG (H+L) (ab150113, Abcam Ltd., Cambridge, UK), which had been diluted 200-fold with 5% BSA/0.5% FBS/2 mM EDTA/PBS, was added and the cells were suspended. Then, a secondary antibody reaction was carried out in a dark room at 4° C. for 30 min. After that, the cells were washed 3 times with 1 mL of 0.5% FBS/2 mM EDTA/PBS. Thereafter, the cells were suspended in 500 μL of 0.5% FBS/2 mM EDTA/PBS and were made to pass through a 40 μm-mesh column (Becton, Dickinson and Company, Franklin Lakes, N.J.). A Beckman Coulter-Moflo XDP (Beckman Coulter Inc., Fullerton, Calif.) was used for analysis. Following the analysis, further analysis was conducted by adding 2 μL of 0.25 mg/mL Propidium Iodide (PI). The same experiment was repeated four times.

liver fibrosis = experiment: Non-alcoholic steatohepatitis model mouse (Azan staining); type: in vivo, C57BL/6JHamSlc-ob/ob male mice; conditions: high fat diet 12 weeks, drug for last 6 weeks, IC-2 21.2 mg/kg i.p. 3 times a week, vs vehicle group
Method: To induce anesthesia, 1-mL disposable syringe with a 27-G needle was used to intraperitoneally inject, into a mouse, 1 μL/g body weight of a systemic anesthetic somnopentyl (Kyoritsuseiyaku Corporation, Tokyo).
The liver tissue sample, as so resected, was fixed in 4% paraformaldehyde at room temperature for 16 h, embedded in paraffin, and sectioned with a microtome to prepare tissue sections. The tissue sections were subjected to deparaffinization using xylene (Nacalai tesque) and a hydration reaction with ethanol (Nacalai tesque), and were then allowed to stand in 5% potassium dichromate/trichloroacetic acid aqueous solution (Wako Pure Chemical Industries, Ltd.) for 20 min. After washing in running water for 5 min, the tissue sections were stained with Azocarmine G (Wako Pure Chemical Industries, Ltd.) at 60° C. for 1 h, washed with water, and then destained for 3 min in 5% aniline (Nacalai tesque)-containing ethanol solution. Next, 5% acetic acid (Nacalai tesque)-containing ethanol solution was used to stop the destaining reaction. After washing with water, the tissue sections were allowed to stand in 5% phosphotungstic acid aqueous solution (Alfa Aesar, Ward Hill, Mass.) for 1 h. […] The ratio of the blue-stained fiber area to the total tissue area of each photographed image was quantified to calculate a fibrosis-positive area ratio. […]

| Compound | inhibitory effect on cancer stem cells compared with IC-2 [1] | fibrosis area (Azan staining) (liver fibrosis) |
| --- | --- | --- |
| COc1ccc(COc2ccc(CNC(=O)N3CCC(=O)N4C(Cc5ccccc5)C(=O)N(Cc5cccc6ccccc56)CC34)cc2)cc1 (centres unmarked) [IC-2-OPMB] | more potent inhibitory effect on cancer stem cells than IC-2 |  |
| O=C1C(Cc2ccccc2)N2C(=O)CCN(C(=O)NCc3ccccc3)C2CN1Cc1cccc2ccccc12 (centres unmarked) [IC-2] |  | decrease more than that of the vehicle group |
